Four compounds from patent publication US12428433B2, “Fluorine-containing heterocyclic derivatives with macrocyclic structure and use thereof” (ScinnoHub Pharmaceutical Co., Ltd, priority 2019, dated 2025) can be followed below.

Assay in all cases: In-vitro cell viability (CellTiter-Glo), BaF3 cell lines
Format in all cases: cell-based
Holding throughout (settings): Mus musculus, 72 hours
For orientation: ATP-based viability assays read luminescence as a measure of living cells.

The test system of one experiment is Ba/F3-LMNA-NTRK1-F589L. On the procedure:
(§1) Hefei Precedo Biomedical Technology Co., Ltd. was commissioned to complete the testing example, and the cell lines used were constructed by this company.
(§2) In-vitro anti-proliferative effects of the compound of the present application on 6 BaF3 cell lines were measured.
(§3) 6 Ba/F3 cell lines were cultured with RPMI 1640 (Biological Industries, Israel)+10% fetal calf serum (Biological Industries, Israel)+1% double antibiotics (Penicillin Streptomycin solution, Coring, USA), and cells were cultured for two generations after resuscitation, to be tested.
(§4) The to-be-tested compound was prepared into 10 mM mother solution with DMSO, and then diluted to 1 mM with DMSO. The solution was diluted by 3 times to prepare into 1.0000 mM, 0.3333 mM, 0.1111 mM, 0.03704 mM, 0.01235 mM, 0.00412 mM, 0.00137 mM, 0.00046 mM, 0.00015 mM, and […], and stored in a 96-well drug plate (Beaver, Suzhou), with 10 concentration gradients in total. Meanwhile, an equal volume of DMSO solvent was used as a negative control.
(§5) The prepared 1,000× compounds of 10 concentration gradients were respectively diluted by 50 times into 20× compounds with complete medium, and stored in a 96-well drug plate (Beaver, Suzhou), with 10 concentration gradients in total. Meanwhile, an equal volume of DMSO solvent was used as a negative control.
(§6) Cell suspension in logarithmic growth phase was inoculated on a 96-well white cell culture plate (Corning 3917, NY, USA), and a volume of each well was 95 μl (about 2000 cells/well).
(§7) 5 μl of 20× to-be-tested compounds were respectively added into the culture plate containing 95 μl of cell suspension above, and mixed evenly, with 2 wells for each concentration gradient. Final concentrations of the to-be-tested compounds were 1.0000 μM, 0.3333 μM, 0.1111 μM, 0.03704 μM, 0.01235 μM, 0.00412 μM, 0.00137 μM, 0.00046 μM, 0.00015 μM, and […] respectively.
(§8) Incubation was carried out in an incubator at 37° C. under 5% CO2 for 72 hours.
(§9) The following steps were carried out according to the instruction of Promega CellTiter-Glo Luminescence Cell Viability Assay Kit (Promega-G7573).
(§10) A corresponding […] value RLU of each well was obtained through reading by SpectraMax Paradigm. Cell viability data was processed by the following formula:
(§11) Cell viability(%)=(RLUDrug−RLUMin)/(RLUMax−RLUMin)*100%. Cell viabilities of compounds of different concentrations were calculated in EXCEL, then cell viability curves were made by GraphPad Prism software, and related parameters were calculated. The parameters comprised a maximum cell viability, a minimum cell viability, and an IC50 value.

For a further experiment, the system named is Ba/F3-LMNA-NTRK1-V573I. The protocol:
as §1, §2, §3, §4, §5, §6, §7, §8, §9, §10, §11

The next experiment concerns Ba/F3-TEL-NTRK2. The protocol:
as §1, §2, §3, §4, §5, §6, §7, §8, §9, §10, §11

The subject of the next experiment is Ba/F3-LMNA-NTRK1. The protocol: as §1, §2, §3, §4, §5, §6, §7, §8, §9, §10, §11
In the next experiment the test system is Ba/F3-LMNA-NTRK1-G667S. On the procedure:
as §1, §2, §3, §4, §5, §6, §7, §8, §9, §10, §11

The subject of the next experiment is Ba/F3-TEL-NTRK3. On the procedure: as §1, §2, §3, §4, §5, §6, §7, §8, §9, §10, §11

pIC50: −log10 of the molar value.

As for `O=C1N[C@H]2C[C@H](C2)Oc2ncc(F)cc2[C@H]2CCCN2c2ccn3ncc1c3n2` (stereo in doubt) [Positive control 1, reference compound], the pIC50 with Ba/F3-LMNA-NTRK1-F589L is 8.18; with Ba/F3-LMNA-NTRK1-V573I it was 9.70; in the experiment on Ba/F3-TEL-NTRK2, 9.05; with Ba/F3-LMNA-NTRK1, 9.30; with Ba/F3-LMNA-NTRK1-G667S, 8.57; in the experiment with Ba/F3-TEL-NTRK3, 9.05.

As for `O=C1N[C@H]2C[C@H](C2)Oc2ncc(F)cc2[C@H]2CCCN2c2nc3c1cnn3cc2F` [Example 2, ((1^3E,1^4E,2^2R,5^1S,5^3S)-1^6,3^5-difluoro-4-oxa-6-aza-1(5,3)-pyrazolo[1,5-a]pyrimidine-3(3,2)-pyridine-2(1,2)-pyrrolidine-5(1,3)-cyclobutancycloheptan-7-one], the pIC50 with Ba/F3-LMNA-NTRK1-F589L is 8.62; in the experiment with Ba/F3-LMNA-NTRK1-V573I, 9.52; with Ba/F3-TEL-NTRK2, 8.80; in the experiment on Ba/F3-LMNA-NTRK1, 9.15; with Ba/F3-LMNA-NTRK1-G667S, 8.47; in the experiment with Ba/F3-TEL-NTRK3, 8.77.

Consider `C[C@H]1Nc2ccn3ncc(c3n2)C(=O)N[C@H]2C[C@H](C2)Oc2ncc(F)cc21` [Positive control 2, reference compound], for which the pIC50 is 8.35 with Ba/F3-LMNA-NTRK1-F589L; 8.64 in the experiment with Ba/F3-LMNA-NTRK1-V573I; 8.14 with Ba/F3-TEL-NTRK2; 8.39 with Ba/F3-LMNA-NTRK1; 7.70 in the experiment on Ba/F3-LMNA-NTRK1-G667S; 8.01 in the experiment on Ba/F3-TEL-NTRK3.

Turning to `C[C@H]1Nc2nc3c(cnn3cc2F)C(=O)N[C@H]2C[C@H](C2)Oc2ncc(F)cc21` [Example 3, (3^1S,3^3S,6^3E,6^4E,8R)-1^5,6^6-difluoro-8-methyl-2-oxo-4,7-diaza-6(3,5)-pyrazolo[1,5-a]pyrimidine-1(2,3)-pyridine-3(1,3)-cyclobutylcyclooctane-5-one], the pIC50 in the experiment with Ba/F3-LMNA-NTRK1-F589L was 8.92; in the experiment on Ba/F3-LMNA-NTRK1-V573I, 8.96; with Ba/F3-TEL-NTRK2 it was 8.47; in the experiment on Ba/F3-LMNA-NTRK1, 8.80; with Ba/F3-LMNA-NTRK1-G667S it was 8.08; in the experiment on Ba/F3-TEL-NTRK3 it was 8.30.

Broadly, the pIC50 is the negative decadic logarithm of the IC50, by convention in mol/L. Low readings indicate a large IC50, high ones a small IC50.
